Data published in patent US11466017B2, “Heterocyclic inhibitors of PTPN11” (priority 2011, dated 2022).

Test system: BT474 human breast carcinomas cell line
Test: In vivo tumor model, BT474 (HER2+) xenograft
Conditions: BT474 xenograft in CB-17/SCID mice, 100 mg/kg once per day oral gavage, 5 days on/2 days off, 4 weeks
From the text: Xenografts were initiated with BT474 human breast carcinomas cell line and maintained by serial subcutaneous transplantation in CB-17/SCID mice (Charles River). On the day of tumor implant, each test mouse received a 1 mm^3 BT474 fragment implanted subcutaneously in the right flank, and tumor growth was monitored as the average size approached the target range of 100 to 150 mm3. About three weeks post-implantation, the animals were randomized and grouped based on tumor volume and mouse body weight. […] Tumors were measured in two dimensions using calipers, and volume was calculated using the formula: Tumor Volume (mm^3)=w^2× ½.

With `CC1(N)CCN(c2cnc3c(-c4cccc(Cl)c4Cl)n[nH]c3n2)CC1` [Example 1, 1-(3-(2,3-dichlorophenyl)-1H-pyrazolo[3,4-b]pyrazin-6-yl)-4-methylpiperidin-4-amine] the “tolerability (body weight)” value was “tolerated dose” and the “tumor growth (tumor volume)” value was “significant suppression of tumor growth”.
